The values that follow come from paper PMC12336824 (The Journal of Biological Chemistry, 2025).

For this experiment, the system named is V. cholerae Δnqr mutant. The experiment is described as follows: microbe, parasite or virus in culture. The class given is cell-based.

Values after ≈ are worked out from the molar mass of the structure shown.

With `CC(C)/N=c1\cc2n(-c3ccc(Cl)cc3)c3ccccc3nc-2cc1Nc1ccc(Cl)cc1` [clofazimine], the “resistance of the growth to saturating concentrations of inhibitor” value is given as “about 40%”. The molecule also had an MIC50 (Vibrio cholerae, 8 h) of 23 ± 6 µM (≈ 10.9 µg/mL).
